Measurements as given in ChEMBL document CHEMBL4014348, “Design, Multicomponent Synthesis, and Anticancer Activity of a Focused Histone Deacetylase (HDAC) Inhibitor Library with Peptoid-Based Cap Groups” (J Med Chem, 2017).
“And” between values parts separate entries of the source, which are not always exact repeats. Equal values may be shown once.

Tests used:
[1] = Cytotoxicity against human Cal27CisR cells assessed as cell survival after 72 hrs by MTT assay; assay type: functional, cell-based
A2780cisR = assay: Cytotoxicity against human A2780cisR cells assessed as cell survival after 72 hrs by MTT assay; assay type: functional, cell-based
[2] = molecular target: T1, Histone deacetylase 1/2/3/6 (Homo sapiens, UniProt Q13547+O15379+Q9UBN7+Q92769); assay: Inhibition of HDAC1/2/3/6 in human A2780 cells using Boc-Lys(epsilon-Ac)-AMC as substrate preincubated for 18 hrs followed by substrate addition measured after 3 hrs by fluorescence assay; assay type: cell-based
[3] = molecular target: T1, Histone deacetylase 1/2/3/6; assay: Inhibition of HDAC1/2/3/6 in human Cal27 cells using Boc-Lys(epsilon-Ac)-AMC as substrate preincubated for 18 hrs followed by substrate addition measured after 3 hrs by fluorescence assay; assay type: cell-based
CAL-27 = assay: Cytotoxicity against human CAL27 cells assessed as cell survival after 72 hrs by MTT assay; assay type: functional, cell-based; conditions: CAL-27, 72 h
[4] = molecular target: T1, Histone deacetylase 1/2/3/6; assay: Inhibition of HDAC1/2/3/6 in human Cal27CisR cells using Boc-Lys(epsilon-Ac)-AMC as substrate preincubated for 18 hrs followed by substrate addition measured after 3 hrs by fluorescence assay; assay type: cell-based
[5] = molecular target: T1, Histone deacetylase 1/2/3/6; assay: Inhibition of HDAC1/2/3/6 in human A2780cisR cells using Boc-Lys(epsilon-Ac)-AMC as substrate preincubated for 18 hrs followed by substrate addition measured after 3 hrs by fluorescence assay; assay type: cell-based
A2780 = assay: Cytotoxicity against human A2780 cells assessed as cell survival after 72 hrs by MTT assay; assay type: functional, cell-based; conditions: A2780, 72 h
[6] = Apparent permeability in human Caco2 cells; assay type: ADME, cell-based, Caco-2
[7] = Apparent permeability in MDCK cells; assay type: ADME, cell-based, Canis lupus familiaris; conditions: dog
[8] = molecular target: Voltage-gated inwardly rectifying potassium channel KCNH2 (Homo sapiens, UniProt Q12809); assay: Inhibition of human ERG
Sequence of Voltage-gated inwardly rectifying potassium channel KCNH2 (Q12809 whole entry): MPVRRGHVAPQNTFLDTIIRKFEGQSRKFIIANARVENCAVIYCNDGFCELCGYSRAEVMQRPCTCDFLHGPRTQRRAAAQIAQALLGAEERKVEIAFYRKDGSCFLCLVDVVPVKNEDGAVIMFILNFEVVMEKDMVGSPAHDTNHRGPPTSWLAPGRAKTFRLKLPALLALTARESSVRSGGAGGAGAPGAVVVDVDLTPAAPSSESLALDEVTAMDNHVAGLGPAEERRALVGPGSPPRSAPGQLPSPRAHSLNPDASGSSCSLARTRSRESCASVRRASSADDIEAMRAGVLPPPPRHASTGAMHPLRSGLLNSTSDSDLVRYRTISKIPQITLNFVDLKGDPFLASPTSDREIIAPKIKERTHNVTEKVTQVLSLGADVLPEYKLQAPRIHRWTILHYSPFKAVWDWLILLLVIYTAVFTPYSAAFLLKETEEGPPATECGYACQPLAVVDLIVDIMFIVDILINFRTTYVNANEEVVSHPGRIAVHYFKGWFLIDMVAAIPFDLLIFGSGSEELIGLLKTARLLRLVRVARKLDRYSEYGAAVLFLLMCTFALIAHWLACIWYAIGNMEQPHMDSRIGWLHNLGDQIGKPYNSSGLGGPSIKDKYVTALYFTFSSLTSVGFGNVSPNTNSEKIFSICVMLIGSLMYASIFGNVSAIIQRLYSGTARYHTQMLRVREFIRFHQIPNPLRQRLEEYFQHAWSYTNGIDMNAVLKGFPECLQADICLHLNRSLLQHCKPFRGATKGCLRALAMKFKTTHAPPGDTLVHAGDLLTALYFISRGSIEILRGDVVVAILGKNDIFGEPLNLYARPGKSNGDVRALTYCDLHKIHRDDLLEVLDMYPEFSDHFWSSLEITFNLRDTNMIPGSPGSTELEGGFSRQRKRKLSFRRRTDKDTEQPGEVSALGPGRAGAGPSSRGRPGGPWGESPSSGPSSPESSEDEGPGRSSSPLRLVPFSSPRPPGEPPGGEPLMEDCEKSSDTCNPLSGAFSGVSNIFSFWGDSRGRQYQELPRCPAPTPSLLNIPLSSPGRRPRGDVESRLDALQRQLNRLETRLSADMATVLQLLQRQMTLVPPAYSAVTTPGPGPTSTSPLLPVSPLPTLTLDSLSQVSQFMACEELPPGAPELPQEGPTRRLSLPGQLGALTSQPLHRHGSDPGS

Histone deacetylase 2 = Histone deacetylase 2 (Homo sapiens, UniProt Q92769); assay: Inhibition of full length human recombinant C-terminal FLAG-tagged HDAC2 expressed in baculovirus infected Sf9 insect cells using Boc-Lys(epsilon-Ac)-AMC as substrate measured after 90 mins by fluorescence assay; assay type: cell-based
Sequence of Histone deacetylase 2 (Q92769 whole entry): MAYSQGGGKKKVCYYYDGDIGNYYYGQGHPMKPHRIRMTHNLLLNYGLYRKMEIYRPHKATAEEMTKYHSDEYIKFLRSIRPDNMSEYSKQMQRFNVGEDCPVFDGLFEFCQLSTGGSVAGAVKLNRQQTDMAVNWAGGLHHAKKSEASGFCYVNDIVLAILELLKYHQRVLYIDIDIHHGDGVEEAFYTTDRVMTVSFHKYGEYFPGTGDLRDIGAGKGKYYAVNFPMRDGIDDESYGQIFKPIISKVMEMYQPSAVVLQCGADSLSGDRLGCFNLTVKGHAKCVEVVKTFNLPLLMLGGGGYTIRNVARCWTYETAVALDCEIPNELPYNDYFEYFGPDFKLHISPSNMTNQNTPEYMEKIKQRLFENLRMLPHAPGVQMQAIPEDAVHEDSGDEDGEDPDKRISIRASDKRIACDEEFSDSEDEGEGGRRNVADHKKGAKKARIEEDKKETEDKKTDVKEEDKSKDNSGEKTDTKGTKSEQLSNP

[9] = molecular target: T2, Protein deacetylase HDAC6 (Homo sapiens, UniProt Q9UBN7); assay: Inhibition of N-terminal GST-tagged recombinant human HDAC6 expressed in baculovirus infected Sf9 insect cells using Z-(Ac)Lys-AMC as substrate measured after 90 mins by fluorescence assay
T2 sequence (Q9UBN7 whole entry): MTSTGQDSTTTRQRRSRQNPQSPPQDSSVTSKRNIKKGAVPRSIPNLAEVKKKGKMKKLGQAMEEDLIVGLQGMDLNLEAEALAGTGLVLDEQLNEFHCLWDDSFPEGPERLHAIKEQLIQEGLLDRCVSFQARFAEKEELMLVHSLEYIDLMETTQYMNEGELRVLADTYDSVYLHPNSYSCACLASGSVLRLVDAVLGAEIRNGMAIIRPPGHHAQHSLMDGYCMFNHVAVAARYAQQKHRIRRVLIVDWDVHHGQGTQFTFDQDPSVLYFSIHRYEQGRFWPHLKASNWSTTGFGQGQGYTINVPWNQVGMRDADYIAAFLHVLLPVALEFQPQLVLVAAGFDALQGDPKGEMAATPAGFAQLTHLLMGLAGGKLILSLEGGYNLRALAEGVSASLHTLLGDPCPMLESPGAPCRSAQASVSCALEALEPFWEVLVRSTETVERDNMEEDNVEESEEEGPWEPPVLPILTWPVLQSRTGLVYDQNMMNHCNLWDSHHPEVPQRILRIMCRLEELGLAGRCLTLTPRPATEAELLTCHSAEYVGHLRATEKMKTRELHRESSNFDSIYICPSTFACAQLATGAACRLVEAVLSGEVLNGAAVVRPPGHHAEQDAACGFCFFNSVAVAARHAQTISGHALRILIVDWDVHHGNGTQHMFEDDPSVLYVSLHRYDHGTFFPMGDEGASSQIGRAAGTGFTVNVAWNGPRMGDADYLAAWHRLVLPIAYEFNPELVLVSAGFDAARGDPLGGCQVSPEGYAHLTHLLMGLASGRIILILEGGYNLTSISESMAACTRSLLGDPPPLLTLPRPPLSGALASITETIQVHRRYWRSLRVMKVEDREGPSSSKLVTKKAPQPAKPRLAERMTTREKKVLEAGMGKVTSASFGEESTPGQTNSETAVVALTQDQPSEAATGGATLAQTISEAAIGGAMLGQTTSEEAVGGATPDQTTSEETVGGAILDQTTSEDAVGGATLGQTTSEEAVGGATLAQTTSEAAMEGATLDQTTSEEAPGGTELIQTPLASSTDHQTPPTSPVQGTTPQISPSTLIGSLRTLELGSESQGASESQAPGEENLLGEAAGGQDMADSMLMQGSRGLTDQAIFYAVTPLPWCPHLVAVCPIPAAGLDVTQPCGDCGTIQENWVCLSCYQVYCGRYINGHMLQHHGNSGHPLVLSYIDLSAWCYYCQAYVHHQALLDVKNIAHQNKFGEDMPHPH

Histone deacetylase 1 = Histone deacetylase 1 (Homo sapiens, UniProt Q13547); assay: Inhibition of C-terminal FLAG/His-tagged recombinant human HDAC1 expressed in baculovirus infected Sf9 insect cells using Z-(Ac)Lys-AMC as substrate measured after 90 mins by fluorescence assay
Sequence of Histone deacetylase 1 (Q13547 whole entry): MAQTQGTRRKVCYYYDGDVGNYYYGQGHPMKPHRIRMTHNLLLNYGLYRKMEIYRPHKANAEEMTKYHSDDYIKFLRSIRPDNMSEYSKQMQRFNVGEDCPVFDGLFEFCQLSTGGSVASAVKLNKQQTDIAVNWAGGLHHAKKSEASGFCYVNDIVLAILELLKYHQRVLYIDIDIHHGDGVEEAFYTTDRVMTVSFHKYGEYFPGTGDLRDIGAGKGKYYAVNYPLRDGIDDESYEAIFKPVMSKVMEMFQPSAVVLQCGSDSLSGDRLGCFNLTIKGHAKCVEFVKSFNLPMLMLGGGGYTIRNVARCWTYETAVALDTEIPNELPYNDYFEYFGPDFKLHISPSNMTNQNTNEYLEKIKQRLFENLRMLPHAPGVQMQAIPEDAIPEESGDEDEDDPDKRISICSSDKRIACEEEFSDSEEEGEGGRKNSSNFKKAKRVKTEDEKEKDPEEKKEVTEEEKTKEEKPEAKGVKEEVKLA

[10] = molecular target: Histone deacetylase 3/Nuclear receptor corepressor 2 (HDAC3/NCoR2) (Homo sapiens, UniProt O15379); assay: Inhibition of full length human recombinant C-terminal His-tagged HDAC3/NcoR2 expressed in baculovirus infected Sf9 insect cells using Boc-Lys(epsilon-Ac)-AMC as substrate measured after 90 mins by fluorescence assay
Sequence of Histone deacetylase 3/Nuclear receptor corepressor 2 (HDAC3/NCoR2) (O15379 whole entry): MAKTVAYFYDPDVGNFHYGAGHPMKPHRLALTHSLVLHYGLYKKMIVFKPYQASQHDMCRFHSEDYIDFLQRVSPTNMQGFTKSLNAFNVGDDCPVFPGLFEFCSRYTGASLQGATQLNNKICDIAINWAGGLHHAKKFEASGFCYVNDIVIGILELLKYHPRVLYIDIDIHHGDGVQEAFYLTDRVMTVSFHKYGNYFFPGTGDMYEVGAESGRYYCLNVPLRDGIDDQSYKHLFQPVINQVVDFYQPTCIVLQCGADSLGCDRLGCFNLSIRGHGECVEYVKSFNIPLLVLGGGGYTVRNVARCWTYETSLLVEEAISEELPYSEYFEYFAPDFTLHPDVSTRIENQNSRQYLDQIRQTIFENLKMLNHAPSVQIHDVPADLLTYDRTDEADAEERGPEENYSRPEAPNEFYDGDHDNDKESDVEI
Sequence of Histone deacetylase 3/Nuclear receptor corepressor 2 (HDAC3/NCoR2) (Q9Y618 whole entry, further chain): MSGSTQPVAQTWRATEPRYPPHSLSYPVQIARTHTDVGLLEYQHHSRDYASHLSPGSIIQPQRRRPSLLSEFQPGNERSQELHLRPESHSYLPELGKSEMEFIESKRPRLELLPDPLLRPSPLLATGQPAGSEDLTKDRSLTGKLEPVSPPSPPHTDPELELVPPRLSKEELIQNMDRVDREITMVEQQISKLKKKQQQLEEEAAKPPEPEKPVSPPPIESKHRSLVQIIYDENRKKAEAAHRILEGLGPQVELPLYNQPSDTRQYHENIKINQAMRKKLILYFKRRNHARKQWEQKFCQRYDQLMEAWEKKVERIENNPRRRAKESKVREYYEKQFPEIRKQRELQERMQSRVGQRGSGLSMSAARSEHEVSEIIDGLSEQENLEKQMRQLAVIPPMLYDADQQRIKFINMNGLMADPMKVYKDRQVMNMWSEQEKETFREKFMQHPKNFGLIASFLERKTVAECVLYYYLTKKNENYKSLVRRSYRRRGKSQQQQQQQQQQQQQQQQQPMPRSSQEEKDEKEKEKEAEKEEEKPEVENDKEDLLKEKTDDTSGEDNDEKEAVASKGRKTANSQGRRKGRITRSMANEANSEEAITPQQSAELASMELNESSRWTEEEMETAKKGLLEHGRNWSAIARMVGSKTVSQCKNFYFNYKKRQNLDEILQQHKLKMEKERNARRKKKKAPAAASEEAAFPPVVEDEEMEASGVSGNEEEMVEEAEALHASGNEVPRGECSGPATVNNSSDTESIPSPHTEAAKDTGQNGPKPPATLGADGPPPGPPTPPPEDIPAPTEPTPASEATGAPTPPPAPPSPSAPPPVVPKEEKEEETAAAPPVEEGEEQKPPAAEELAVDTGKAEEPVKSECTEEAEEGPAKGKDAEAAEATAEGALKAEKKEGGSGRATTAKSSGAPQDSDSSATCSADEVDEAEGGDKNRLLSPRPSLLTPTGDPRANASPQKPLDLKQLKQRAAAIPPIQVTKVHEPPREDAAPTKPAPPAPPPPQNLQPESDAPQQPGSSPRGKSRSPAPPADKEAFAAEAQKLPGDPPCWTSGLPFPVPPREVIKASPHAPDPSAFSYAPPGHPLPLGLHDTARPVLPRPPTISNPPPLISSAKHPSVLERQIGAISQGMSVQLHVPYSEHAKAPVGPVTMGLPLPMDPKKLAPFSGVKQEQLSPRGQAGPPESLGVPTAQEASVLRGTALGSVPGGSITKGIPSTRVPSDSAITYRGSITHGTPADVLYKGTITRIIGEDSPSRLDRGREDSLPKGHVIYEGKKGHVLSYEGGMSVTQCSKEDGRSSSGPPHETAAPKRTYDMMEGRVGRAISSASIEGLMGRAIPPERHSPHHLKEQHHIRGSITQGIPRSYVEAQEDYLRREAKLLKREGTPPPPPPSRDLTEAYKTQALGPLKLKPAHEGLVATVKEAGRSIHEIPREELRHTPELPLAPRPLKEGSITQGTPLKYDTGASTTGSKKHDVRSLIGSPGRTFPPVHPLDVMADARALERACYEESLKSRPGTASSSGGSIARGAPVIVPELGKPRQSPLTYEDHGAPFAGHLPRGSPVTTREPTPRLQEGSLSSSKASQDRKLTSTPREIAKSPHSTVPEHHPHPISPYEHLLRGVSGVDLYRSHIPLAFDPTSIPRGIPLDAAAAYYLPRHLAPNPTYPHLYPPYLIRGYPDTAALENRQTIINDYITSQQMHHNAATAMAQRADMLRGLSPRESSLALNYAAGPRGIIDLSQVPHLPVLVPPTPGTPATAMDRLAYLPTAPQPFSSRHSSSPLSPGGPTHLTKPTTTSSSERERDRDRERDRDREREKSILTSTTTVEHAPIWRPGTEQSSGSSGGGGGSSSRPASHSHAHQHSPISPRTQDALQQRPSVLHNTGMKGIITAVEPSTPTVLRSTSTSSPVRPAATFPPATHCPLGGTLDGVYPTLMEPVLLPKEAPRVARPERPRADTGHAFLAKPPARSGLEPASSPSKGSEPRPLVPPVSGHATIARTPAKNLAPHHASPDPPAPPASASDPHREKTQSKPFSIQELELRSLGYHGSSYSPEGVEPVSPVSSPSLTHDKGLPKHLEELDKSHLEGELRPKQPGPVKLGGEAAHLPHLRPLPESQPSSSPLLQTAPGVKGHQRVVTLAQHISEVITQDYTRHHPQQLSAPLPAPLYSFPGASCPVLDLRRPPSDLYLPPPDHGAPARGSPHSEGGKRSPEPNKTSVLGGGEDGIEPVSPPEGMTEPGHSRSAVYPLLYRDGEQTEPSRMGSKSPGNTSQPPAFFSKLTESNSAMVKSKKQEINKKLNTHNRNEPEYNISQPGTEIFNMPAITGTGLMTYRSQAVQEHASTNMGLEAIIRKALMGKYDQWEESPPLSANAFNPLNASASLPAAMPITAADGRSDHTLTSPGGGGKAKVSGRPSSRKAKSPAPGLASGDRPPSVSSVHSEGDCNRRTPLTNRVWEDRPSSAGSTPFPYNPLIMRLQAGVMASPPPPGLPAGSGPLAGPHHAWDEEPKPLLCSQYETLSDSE

Histone deacetylase 8 = molecular target: T3, Histone deacetylase 8 (Homo sapiens, UniProt Q9BY41); assay: Inhibition of human recombinant HDAC8 expressed in Escherichia coli using Z-L-Lys(epsilon-trifluoroacetyl)-AMC as substrate measured after 90 mins by fluorescence assay
T3 sequence (Q9BY41 whole entry): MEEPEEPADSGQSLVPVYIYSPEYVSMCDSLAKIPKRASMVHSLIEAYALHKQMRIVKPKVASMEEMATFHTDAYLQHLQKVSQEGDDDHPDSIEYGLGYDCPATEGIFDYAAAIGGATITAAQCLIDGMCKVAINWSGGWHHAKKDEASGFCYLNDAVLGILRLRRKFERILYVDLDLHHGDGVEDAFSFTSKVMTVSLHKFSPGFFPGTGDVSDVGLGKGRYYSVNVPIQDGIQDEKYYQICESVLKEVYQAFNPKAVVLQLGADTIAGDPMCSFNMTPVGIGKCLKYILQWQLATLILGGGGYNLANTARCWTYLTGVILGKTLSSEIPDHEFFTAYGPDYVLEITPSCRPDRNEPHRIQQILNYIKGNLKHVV

Structure (SMILES)	IC50 [2] [nM]	IC50 [3] [nM]	IC50 [4] [nM]	IC50 [5] [nM]	Papp ([6]; Caco-2, read-out: Papp) [×10⁻⁶ cm/s]	Papp ([7]; MDCK, read-out: Papp) [×10⁻⁶ cm/s]	Papp ([6]; caco-2) [×10⁻⁶ cm/s]	Papp ([7]; mdck) [×10⁻⁶ cm/s]	IC50 (Histone deacetylase 2) [nM]	IC50 [9] [nM]	IC50 (Histone deacetylase 1) [nM]	IC50 [10] [nM]	IC50 (Histone deacetylase 8) [nM]	IC50 [1] [nM]	IC50 (A2780cisR) [nM]	IC50 (CAL-27) [nM]	IC50 (A2780) [nM]	IC50 [8]
O=C(CCCCCN(C(=O)c1ccccc1)C(C(=O)NC1CCCCC1)c1ccccc1)NO (stereo unspecified)	3140	2060	2650	2920	–	–	–	–	–	–	–	–	–	5280	5180	6360	3870	–
CC(C)(C)NC(=O)CN(CCCCCC(=O)NO)C(=O)c1ccccc1	8980	6850	4590	9510	–	–	–	–	–	–	–	–	–	19500	42400	16700	20700	–
O=C(CCCCCN(C(=O)c1ccccc1)C1(C(=O)NC2CCCCC2)CCCCC1)NO	13400	14300	10200	10100	–	–	–	–	–	–	–	–	–	77500	50500	44100	42600	–
O=C(CCCCCN1C(=O)c2ccccc2N(Cc2ccccc2)C(=O)[C@@H]1Cc1ccccc1)NO	–	–	–	–	14.4	10.9	–	–	–	–	–	–	–	–	–	–	–	2230 nM
CC(C)CNC(=O)CN(CCCCCC(=O)NO)C(=O)c1ccc(N(C)C)cc1	1090	870	800	820	–	–	–	–	–	–	–	–	–	2110	3190	1870	1900	–
CC(C)(C)NC(=O)C(C)(C)N(CCCCCC(=O)NO)C(=O)c1ccccc1	127000	92500	132000	102000	–	–	–	–	–	–	–	–	–	13800	579000	75800	207000	–
CN(C)c1ccc(C(=O)N(CC(=O)NC2CCCCC2)Cc2ccc(C(=O)NO)cc2)cc1	–	–	–	–	9.8	6.6	10.1	5.8	–	–	–	–	–	–	–	–	–	21500 nM and 52100 nM
Cc1ccc(NC(=O)CN(CCCCCC(=O)NO)C(=O)c2ccc(N(C)C)cc2)cc1	660	370	490	680	–	–	–	–	146	106	96.4	16	6760	600	1610	530	400	–
CN(C)c1ccc(C(=O)N(CCCCCC(=O)NO)CC(=O)NC(C)(C)C)cc1	2060	1780	1970	2490	–	–	–	–	–	–	–	–	–	2180	5180	4040	1030	–

Continued, in another order:

IC50 [2] [nM]	IC50 [3] [nM]	IC50 [4] [nM]	IC50 [5] [nM]	Papp ([6]; Caco-2, read-out: Papp) [×10⁻⁶ cm/s]	Papp ([7]; MDCK, read-out: Papp) [×10⁻⁶ cm/s]	Papp ([6]; caco-2) [×10⁻⁶ cm/s]	Papp ([7]; mdck) [×10⁻⁶ cm/s]	IC50 (Histone deacetylase 2) [nM]	IC50 [9] [nM]	IC50 (Histone deacetylase 1) [nM]	IC50 [10] [nM]	IC50 (Histone deacetylase 8) [nM]	Structure (SMILES)	IC50 [1] [nM]	IC50 (A2780cisR) [nM]	IC50 (CAL-27) [nM]	IC50 (A2780) [nM]	IC50 [8]
1420	1400	1520	1900	–	–	–	–	–	–	–	–	–	CN(C)c1ccc(C(=O)N(CCCCCC(=O)NO)CC(=O)NC2CCCCC2)cc1	35500	3310	2970	1540	–
960	750	600	1290	–	–	–	–	–	–	–	–	–	O=C(CCCCCN(CC(=O)NC1CCCCC1)C(=O)c1cccc2ccccc12)NO	5600	4120	2400	260	–
24500	18200	28800	30800	–	–	–	–	–	–	–	–	–	CN(C)c1ccc(C(=O)N(CCCCCC(=O)NO)C(C)(C)C(=O)NC2CCCCC2)cc1	46100	107000	47700	68500	–
1300	950	800	810	–	–	–	–	–	–	–	–	–	Cc1ccc(NC(=O)CN(CCCCCC(=O)NO)C(=O)c2cc(C)cc(C)c2)cc1	2110	2180	1670	1270	–
2810	2940	3220	3630	–	–	–	–	–	–	–	–	–	Cc1ccc(C(C(=O)NC2CCCCC2)N(CCCCCC(=O)NO)C(=O)c2ccccc2)cc1 (stereo unspecified)	19000	4290	4520	2090	–
880	710	640	930	–	–	–	–	84	214	27.4	60	7400	Cc1cc(C)cc(C(=O)N(CCCCCC(=O)NO)CC(=O)NC2CCCCC2)c1	1140	3810	1130	160	–
1660	1340	1080	1130	–	–	–	–	–	–	–	–	–	O=C(CCCCCN(CC(=O)NC1CCCCC1)C(=O)c1ccccc1)NO	10300	8210	3800	3460	–
37900	26200	43000	44900	–	–	–	–	–	–	–	–	–	CC(C)(C(=O)NC1CCCCC1)N(CCCCCC(=O)NO)C(=O)c1ccccc1	4070	281000	66900	295000	–
630	370	410	350	–	–	–	–	61	135	24.7	26	7330	Cc1cc(C)cc(C(=O)N(CCCCCC(=O)NO)CC(=O)NCc2ccccc2)c1	1410	1850	700	330	–
